Measured values reported in US12616687B2, “Treatment of viral infection, disease or disorder using a selective sir agonist” (Prilenia Neurotherapeutics Ltd., priority 2020, dated 2026).
Where “and” joins values, the source holds several entries; their conditions need not be identical. Identical values can stand only once. Entries after “also recorded” stand apart in the source; their conditions may differ. Like-named read-outs stand apart in the source and are kept apart here.

How the values were obtained:
[1] = tested on: YAC128 HD striatal neurons; assay: mitochondrial ROS (H2O2, MitoPY1) in YAC128 HD striatal neurons; type: cell-based, mouse; conditions: Ant A 2 μM
Experimental: YAC128 is a mouse model of Huntington's Disease (HD), Striatal neurons from wt or YAC128 were treated or not with 1 μM pridopidine and incubated with MitoPY1 fluorescence probe. The mitochondrial respiration inhibitor Antimycin A (Ant A, 2 μM) was used to induce release of Mitochondrial H2O2 and oxidative stress. Mitochondrial H2O2 was recorded in spinning disk confocal before and after administration of Ant A (n=4, considering ˜20 cells/condition).
Striatal neurons from YAC128 HD mice were treated with 1 μM pridopidine prior to induction of ROS production by the mitochondrial respiration inhibitor antimycin A (Ant A).

eIF2α-phosphorylation = assay: eIF2α-phosphorylation, ER stress induced by thapsigargin; type: cell-based; conditions: 2 μg/ml thapsigargin
Experimental: HEK293 cells transfected with Htt20Q-mCherry (wt HTT) were treated with 2 μg/ml thapsigargin to induce ER stress.

SARS-CoV-2 = conditions: viral titer assay; cited from earlier work
S2R = S2R (Homo sapiens, UniProt Q5BJF2); conditions: cited from earlier work
Chain of S2R (Q5BJF2 whole entry): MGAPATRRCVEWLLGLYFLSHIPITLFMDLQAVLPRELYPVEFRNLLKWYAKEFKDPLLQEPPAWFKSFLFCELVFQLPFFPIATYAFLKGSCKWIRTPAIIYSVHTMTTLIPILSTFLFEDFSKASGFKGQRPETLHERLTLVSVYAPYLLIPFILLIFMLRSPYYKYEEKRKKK

S1R [2] = target: T1, S1R (Homo sapiens, UniProt Q99720); conditions: cited from earlier work
T1 sequence (Q99720 whole entry): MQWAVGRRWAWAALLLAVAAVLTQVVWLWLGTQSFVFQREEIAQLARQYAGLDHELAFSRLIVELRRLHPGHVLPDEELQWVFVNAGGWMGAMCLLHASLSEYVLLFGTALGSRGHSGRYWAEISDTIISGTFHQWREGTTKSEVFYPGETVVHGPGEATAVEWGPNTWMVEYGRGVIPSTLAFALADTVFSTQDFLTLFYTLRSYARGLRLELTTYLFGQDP

[3] = at the concentration showing anti-viral activity; cited from earlier work
[4] = tested on: lymphoblasts from HD patients; assay: mitochondrial membrane potential (TMRE) in control and S1R-KD HD lymphoblasts; type: cell-based, human
Experimental: Cells were treated with pridopidine 5 μM, then challenged with 0.1 mM H2O2.

ATF4 = tested on: ATF4
Experimental: (§1) Cells expressing myc-Htt96Q (mutant Htt) or myc-Htt20Q (wt Htt) were treated with pridopidine 3 uM. Immunoblots were reacted with anti-ATF4 (FIG. 7A), anti-CHOP (FIG. 7B) and anti-GADD34 (FIG. 7C), quantified and normalized with anti-actin or anti-tubulin as loading controls.

GADD34 = tested on: GADD34
Experimental: as §1

CHOP = tested on: CHOP
Experimental: as §1

[5] = tested on: Striatal WT and YAC128 (HD) neurons; conditions: 24 h; for mitochondrial membrane potential (MMP) in HD (YAC128) neurons: 0.1 and 1 μM
Source text: The role of S1R in regulating mitochondrial membrane potential (MMP) was studied in striatal neurons from wild-type (WT) control and YAC128 HD mice.

XBP1s = conditions: myc-Htt96Q cells, 3 μM (p<0.01)
[6] = tested on: interferon-stimulated genes (ISGs)
ATF6 = conditions: myc-Htt96Q cells
Experimental: Cells expressing myc-Htt96Q (mutant Htt) were treated with pridopidine 0.03 and 3 μM. Immunoblots were reacted with anti-ATF6 quantified and normalized with anti-tubulin as loading controls.

S1R [7] = target: T1, S1R
[8] = HEK293, Htt96Q-induced ER stress
[9] = pridopidine 5 μM, 24 h, 0.1 mM H2O2

CCCCCC[C@H]1C(=O)O[C@H](C)[C@H](NC(=O)c2cccc(NC=O)c2O)C(=O)O[C@@H](C)[C@@H]1OC(=O)CC(C)C [Ant A, Antimycin A, reference compound]
increase of mitochondrial H2O2 / ROS production ([1]; untreated YAC128 neurons): ~2 fold

C/C=C(/C)C(=O)O[C@H]1C(C)=C2[C@H]([C@@H]1OC(=O)CCCCCCC)[C@@](C)(OC(C)=O)C[C@H](OC(=O)CCC)[C@@]1(O)[C@H]2OC(=O)[C@@]1(C)O [thapsigargin, reference compound]
increase in phosphorylated eIF2α (eIF2α-p) (eIF2α-phosphorylation; HEK293, myc-Htt20Q): 70%

CCN(CCO)CCCC(C)Nc1ccnc2cc(Cl)ccc12 (stereo not drawn) [hydroxychloroquine]
concentration at which anti-viral activity was demonstrated (SARS-CoV-2): ~2 µM | Ki (S2R): 800 nM | Ki (S1R [2]): 200 nM | reduction in cell viability / cell death [3]: ~30%

CN1CCC[C@@H]1CCO[C@](C)(c1ccccc1)c1ccc(Cl)cc1 [Clemastine]
reduction in cell viability / cell death [3]: ~40%

OO [Compound H2O2, H2O2, reference compound]
reduction of MMP in S1R+/+ cells ([4]; 0.1 mM H2O2, HD lymphoblasts): 25% | reduction of MMP in S1R KD cells ([4]; 0.1 mM H2O2, HD lymphoblasts, S1R knocked down ~83%): 75%

CCCN1CCC(c2cccc(S(C)(=O)=O)c2)CC1 [pridopidine, 4-[3-(methylsulfonyl)phenyl]-1-propyl-piperidine]
ATF4 protein level after treatment (ATF4; [8]): normal wt levels | reduction of ATF4 levels (ATF4; myc-Htt96Q cells, 3 μM (p<0.05)): ~4.5 fold | GADD-34 protein level after treatment (GADD34; [8]): normal wt levels | reduction of GADD-34 levels (GADD34; myc-Htt96Q cells, 3 μM (p<0.01)): ~2.5 fold | CHOP protein level after treatment (CHOP; [8]): normal wt levels | reduction of CHOP levels (CHOP; myc-Htt96Q cells, 3 μM): ~2 fold | mitochondrial membrane potential (MMP) in WT neurons ([5]; 0.1 μM): trend towards increasing MMP | mitochondrial membrane potential (MMP) in WT neurons ([5]; 1 μM): significant increase | mitochondrial membrane potential (MMP) in HD (YAC128) neurons [5]: significant increase | mitochondrial membrane potential (MMP) in HD (YAC128) neurons ([5]; listed as Pridopidine): significantly restores the impaired MMP | mitochondrial membrane potential (MMP) in wt neurons ([5]; concentration not stated (FIG. 11 legend)): enhances MMP | reduction in XBP1s mRNA levels (XBP1s): 25% | MMP after H2O2 challenge in S1R KD cells [4, 9]: abolished and not | MMP after H2O2 challenge in S1R+/+ cells [4, 9]: completely restored | reduction of expression of ISGs (IFIT1, EIF2AK2, IRF7 indexed together) [6]: 30-50% | mitochondrial ROS (H2O2) production after Ant A ([1]; YAC128 striatal neurons, pridopidine 1 μM): robust and significant reduction of ROS production by mitochondria back to normal levels; also recorded: inhibits H2O2 release and oxidative stress | reduction of ATF6 (ATF6; 0.03 μM): ~10% | reduction of ATF6 (ATF6; 3 μM): 35% and ~30% | eIF2α-p (ratio of eIF2α-P/eIF2α) (eIF2α-phosphorylation; HEK293, wt HTT, pridopidine 3 μM, 8 hours): caused a reduction; also recorded: reduces p-eIF2α levels | fold higher affinity for the S1R vs the S2R (S1R [7]): 95 fold

O=C(CCCN1CCC(O)(c2ccc(Cl)cc2)CC1)c1ccc(F)cc1 [Haloperidol]
reduction in cell viability / cell death [3]: ~30%
